# Results published in article PMC2409929 (British Journal of Cancer, 2004).
# Where two headings read alike, the source gives them in different places.
# Experiments:
# [1] = Population pharmacokinetics, plasma total irinotecan and SN-38 (HPLC, NONMEM), first course; assay type: in vivo; settings: human, iv
# Experimental: A pharmacokinetic evaluation was performed using a population approach; 88 patients from arms A, B and C were evaluated during the first course of treatment. The sampling strategy consisted of three different sampling schedules (with three sampling times in each): schedule 1: 30 min before the end of the infusion, 5 min and 3–4 h post-infusion; schedule 2: 30 min before the end of the infusion, 10 min and 5–7 h post-infusion; schedule 3: 5 min before the end of the infusion, 30 min and 20–24 h post-infusion. In a few cases, an additional sample was taken in schedules 1 and 2 after 24 h. All patients at one site were sampled according to the same schedule. The aim of the sampling strategy was to define the full kinetic profile over the whole population, by drawing a small number of samples at different times from a large number of patients.
# Blood samples (5 ml) were collected in heparinised tubes and immediately immersed in ice-water. Plasma was obtained by centrifugation of the samples (5 min; 3000 r.p.m., 4°C) and stored at −20°C or lower until analysis. […] Pharmacokinetic parameters were determined by the Bayesian approach with the concentration–time data from each patient, and a population model previously defined.
# Otherwise, they were analysed by nonparametric methods. […] All tests for significance were two-tailed.
# [2] = 140 mg m^−2: 10 mg m^−2 irinotecan as 14-day prolonged infusions, N=6, mean±s.d.; ref 16 (Herben et al, 1999); cited from earlier work
# [3] = system: patients with colorectal cancer; settings: same schedule as arm A (350 mg m^−2 q3 weeks), cited from earlier work
# [4] = system: patients with metastatic colorectal cancer; assay: Randomised phase II trial: tumour response (WHO criteria) and time-to-event efficacy; settings: for Complete response, % / Duration of response and stabilisation, median (min–max) / Overall response (CR+PR), % / Partial response, % / Progressive disease, % / Response not evaluable, % / Stable disease, % / Survival, median (min–max) / Time to progression, median (min–max) / Time to treatment failure, median (min–max): intent-to-treat
# Experimental: A total of 17 centres in Europe participated in this study: two in Denmark, one in Ireland, four in The Netherlands, five in Norway, two in Sweden and three in Russia. […] Randomisation was performed centrally by Aventis Pharma R&D, Antony Cedex, France. […] A total of 37 evaluable patients per arm had to be included.
# Pretreatment evaluation included a complete medical history and complete physical examination. Before each course, blood chemistry and haematology profiles were checked. Haematology was checked weekly. […] An external response review committee (ERRC) was established during the study to perform assessments of tumour response. […] Adverse events that were not reported according to NCI-CTC were graded as mild, moderate, severe, or life threatening.
# The primary efficacy variable was response rate; overall response was defined as complete plus partial response. The secondary efficacy variables were the duration of response and stabilisation, time to progression, time to treatment failure and the overall survival. The differences between the four treatment groups were explored with the χ^2 test. Subsequent statistical tests were performed only in the case of evidence of difference to provide the significance level of difference. The Fisher exact test was used to compare treatment groups on categorical variables. For continuous variables, if a normal distribution could be assumed, Student's t-tests were used. Otherwise, they were analysed by nonparametric methods. Exact confidence intervals were calculated using binominal distribution probability. Censored data were analysed using the Kaplan–Meier method; the log-rank test was used to compare the groups. Differences in pharmacokinetic parameters between the four treatment arms were evaluated using one-way analysis of variance (ANOVA) combined with least significant difference (LSD) method (P was set at 0.05) and the Student's t-test was used to calculate the P-value of significant differences. The Pearson correlation coefficient (r) was calculated between dose and pharmacokinetic parameters. Statistical analyses were performed with SPSS (version 10.0.7 for Windows, SPSS Inc.). All tests for significance were two-tailed.
# [5] = arm A, 350 mg m^−2 90-min i.v. infusion, N=30, mean±s.d.
# [6] = arm B, 125 mg m^−2 90-min i.v. infusion, N=28, mean±s.d.
# [7] = arm C, 250 mg m^−2 90-min i.v. infusion, N=30, mean±s.d.
# [8] = arm A (350 mg m^−2 90-min i.v. q3 weeks)
# [9] = arm B (125 mg m^−2 90-min i.v. weekly × 4 q6 weeks)
# [10] = arm C (250 mg m^−2 90-min i.v. q2 weeks)
# [11] = arm D (10 mg m^−2 day^−1 14-day continuous infusion q3 weeks)
smiles,measurement,setting,value
CCc1c2c(nc3ccc(OC(=O)N4CCC(N5CCCCC5)CC4)cc13)-c1cc3c(c(=O)n1C2)COC(=O)[C@]3(O)CC [irinotecan],AUC,[1]; [5],47.8 ± 19 µM·h
same,Cmax,[1]; [5],7.91 ± 1.1 µM
same,AUC,[1]; [6],14.6 ± 6.9 µM·h
same,Cmax,[1]; [6],2.62 ± 0.39 µM
same,AUC,[1]; [7],32.7 ± 13.5 µM·h
same,Cmax,[1]; [7],5.52 ± 0.9 µM
same,Irinotecan AUC,[2],12.8 ± 3.9 µM·h
same,Median survival,[3]; ref Cunningham et al (1998),9.2 months
same,Median survival,[3]; ref Rougier et al (1997),10.8 months
same,Patients who discontinued treatment because of progressive disease,[4]; [8],81%
same,"Complete response, %",[4]; [8],0%
same,"Duration of response and stabilisation, median (min–max)",[4]; [8],5.9 (0.8–12.7) Months
same,"Overall response (CR+PR), %",[4]; [8],7%
same,"Partial response, %",[4]; [8],7%
same,"Progressive disease, %",[4]; [8],46%
same,"Response not evaluable, %",[4]; [8],2%
same,"Stable disease, %",[4]; [8],44%
same,"Survival, median (min–max)",[4]; [8],9.4 (1.0–15.3) Months
same,"Time to progression, median (min–max)",[4]; [8],2.7 (1.0–12.8) Months
same,"Time to treatment failure, median (min–max)",[4]; [8],2.7 (1.0–12.8) Months
same,Patients who discontinued treatment because of progressive disease,[4]; [9],57%
same,"Complete response, %",[4]; [9],0%
same,"Duration of response and stabilisation, median (min–max)",[4]; [9],3.9 (1.0–13.0) Months
same,"Overall response (CR+PR), %",[4]; [9],5%
same,"Partial response, %",[4]; [9],5%
same,"Progressive disease, %",[4]; [9],19%
same,"Response not evaluable, %",[4]; [9],14%
same,"Stable disease, %",[4]; [9],62%
same,"Survival, median (min–max)",[4]; [9],7.1 (0.6–13.5) Months
same,"Time to treatment failure, median (min–max)",[4]; [9],2.3 (0.6–8.3) Months
same,Patients who discontinued treatment because of progressive disease,[4]; [10],61%
same,"Complete response, %",[4]; [10],0%
same,"Duration of response and stabilisation, median (min–max)",[4]; [10],5.3 (1.3–8.9) Months
same,"Overall response (CR+PR), %",[4]; [10],11%
same,"Partial response, %",[4]; [10],11%
same,"Progressive disease, %",[4]; [10],33%
same,"Response not evaluable, %",[4]; [10],2%
same,"Stable disease, %",[4]; [10],54%
same,"Survival, median (min–max)",[4]; [10],8.6 (0.7–16.7) Months
same,"Time to progression, median (min–max)",[4]; [10],3.8 (0.0–8.9) Months
same,"Time to treatment failure, median (min–max)",[4]; [10],3.2 (0.4–7.1) Months
same,Patients who discontinued treatment because of progressive disease,[4]; [11],55%
same,"Complete response, %",[4]; [11],2%
same,"Duration of response and stabilisation, median (min–max)",[4]; [11],3.4 (1.3–6.9) Months
same,"Overall response (CR+PR), %",[4]; [11],5%
same,"Partial response, %",[4]; [11],2%
same,"Progressive disease, %",[4]; [11],34%
same,"Response not evaluable, %",[4]; [11],18%
same,"Stable disease, %",[4]; [11],43%
same,"Survival, median (min–max)",[4]; [11],6.4 (1.1–15.1) Months
same,"Time to progression, median (min–max)",[4]; [11],2.8 (0.0–7.0) Months
same,"Time to treatment failure, median (min–max)",[4]; [11],1.7 (0.5–7.1) Months
same,Median survival,[4]; range across the four arms A–D,6.4–9.4 months
same,Overall response rates,[4]; range across the four arms A–D,5–11%
same,Time to progression,[4]; range across the four arms A–D,2.7–3.8 months
same,Time to treatment failure,[4]; range across the four arms A–D,1.7–3.2 months
